Experimental findings from ChEMBL document CHEMBL3600376, “Antibacterial activity of diketopiperazines isolated from a marine fungus using t-butoxycarbonyl group as a simple tool for purification” (2015) are described below.

Common to all, as to assay type: functional
For one assay, the system named is Staphylococcus aureus. The assay can be described thus: Antibacterial activity against Staphylococcus aureus ATCC 25923 after 18 hrs by agar diffusion method. Conditions: ATCC 25923, 18 h. For orientation: A growth-free zone around the sample is the usual read-out of agar diffusion tests.
The subject of the next assay is Bacillus subtilis. The assay can be described thus: Antibacterial activity against Bacillus subtilis NCTC 2116 after 18 hrs by agar diffusion method. Conditions: NCTC 2116, 18 h.
In the next assay the test system is Escherichia coli. Briefly: Antibacterial activity against Escherichia coli ATCC 25922 after 18 hrs by agar diffusion method. Conditions: ATCC 25922, 18 h.

≈ marks a conversion by molar mass, not a printed value.

In the case of `O=C1N[C@@H](Cc2ccc(O)cc2)C(=O)N2CCC[C@@H]12`, the MIC is 10.2 µg/mL (≈ 39.2 µM) against Staphylococcus aureus, 8.7 µg/mL (≈ 33.4 µM) against Bacillus subtilis and > 20 µg/mL in the assay with Escherichia coli.
Taken in the same sequence, the figures for `COc1ccc2c3c(n(C(=O)OC(C)(C)C)c2c1)[C@H](C=C(C)C)N1C(=O)[C@@H]2CCCN2C(=O)[C@@H]1C3` were 2.8 µg/mL (≈ 5.84 µM), 3.3 µg/mL (≈ 6.88 µM) and 16.4 µg/mL (≈ 34.2 µM).
`CC(C)=CCc1c(C[C@H]2C(=O)N3CCC[C@H]3C(=O)N2C(=O)OC(C)(C)C)c2ccccc2n1C(=O)OC(C)(C)C`: the figures for the minimal inhibitory concentration (MIC) in the assay with Staphylococcus aureus, against Bacillus subtilis and in the assay with Escherichia coli were 2.2 µg/mL (≈ 3.99 µM), 2.1 µg/mL (≈ 3.81 µM) and 19 µg/mL (≈ 34.4 µM), respectively.
Turning to `CC(C)(C)OC(=O)n1cc(C[C@@H]2NC(=O)[C@@H]3CCCN3C2=O)c2ccccc21`, the values for the minimal inhibitory concentration (MIC) against Staphylococcus aureus, against Bacillus subtilis and in the assay on Escherichia coli were 8.9 µg/mL (≈ 23.2 µM), 6.7 µg/mL (≈ 17.5 µM) and > 20 µg/mL, respectively.
For `CCC(C)[C@@H]1NC(=O)[C@@H]2CCCN2C1=O` (stereo partly specified) the same measures were 17.1 µg/mL (≈ 81.3 µM), 15.8 µg/mL (≈ 75.1 µM) and > 20 µg/mL.
For `CC(C)[C@@H]1NC(=O)[C@H]2CCCN2C1=O`, the minimum inhibitory concentration (MIC) is 15.6 µg/mL (≈ 79.5 µM) in the assay on Staphylococcus aureus, 16 µg/mL (≈ 81.5 µM) against Bacillus subtilis and 18.5 µg/mL (≈ 94.3 µM) with Escherichia coli.
For `CC(C)[C@@H]1NC(=O)[C@@H]2CCCN2C1=O`, the minimal inhibitory concentration (MIC) against Staphylococcus aureus is 16.3 µg/mL (≈ 83.1 µM); with Bacillus subtilis it was 18.2 µg/mL (≈ 92.7 µM); in the assay on Escherichia coli, > 20 µg/mL.
For `CC(C)C[C@@H]1NC(=O)[C@@H]2CCCN2C1=O` the same measures were 18.8 µg/mL (≈ 89.4 µM), 15.7 µg/mL (≈ 74.7 µM) and > 20 µg/mL.
Taken in the same sequence, the figures for `O=C1N[C@@H](Cc2ccccc2)C(=O)N2CCC[C@@H]12` were 15.1 µg/mL (≈ 61.8 µM), 17.2 µg/mL (≈ 70.4 µM) and > 20 µg/mL.
For `CC1(C)S[C@@H]2[C@H](NC(=O)[C@H](N)c3ccc(O)cc3)C(=O)N2[C@H]1C(=O)O` [AMOXICILLIN] the same measures were 0.05 µg/mL (≈ 0.137 µM), 0.03 µg/mL (≈ 0.0821 µM) and 0.8 µg/mL (≈ 2.19 µM).
Take `O=C1N[C@@H](Cc2c[nH]c3ccccc23)C(=O)N2CCC[C@@H]12` [BREVIANAMIDE F]: the MIC in the assay on Staphylococcus aureus is 12.6 µg/mL (≈ 44.5 µM); against Bacillus subtilis, 11.9 µg/mL (≈ 42 µM); against Escherichia coli, > 20 µg/mL.
For `CN(C)[C@@H]1C(O)=C(C(N)=O)C(=O)[C@@]2(O)C(O)=C3C(=O)c4c(O)cccc4[C@@](C)(O)[C@H]3C[C@@H]12` [TETRACYCLINE] the same measures were 1.5 µg/mL (≈ 3.38 µM), 1.2 µg/mL (≈ 2.7 µM) and 3.9 µg/mL (≈ 8.78 µM).

For orientation: MIC means the lowest concentration found to suppress growth. The low end stands for inhibition by little substance, the high end for a need for much substance.
